Legend:
16S rRNA = assay: Fluorescence anisotropy competition binding (CRP displacement) to 16S rRNA; conditions: competition with CRP probe, 20° C., pH 7.5; read-out: binding force (bond constant KD) against 16s rRNA
Procedure: (§1) The RNA of the present invention was prepared with sense DNA of 16S rRNA (sequence listing 1) and an antisense DNA of 16S rRNA (sequence listing 2); a sense DNA of RRE RNA (sequence listing 3) and an antisense DNA of RRE RNA (sequence listing 4); and a sense DNA of TS RNA (sequence listing 5) and an antisense DNA of TS RNA (sequence listing 6). […]
(§2) The paromomycin bonded with tetramethylrhodamine (hereinafter referred to as […]) is used as a luminescence fluorescent probe. The luminescence anisotropy is measured by establishing a thermostat of 20° C. at the Perkin-Elmer LS-50B luminescence spectroscope. The luminescence absorptance of CRP is 510 nm and its luminescence fluorescent is observed at 550 nm. […] The luminescence was measured at an elution buffer using 140 mM NaCl, 5 mM KCl, 1 mM MgCl2, and 20 mM HEPES pH 7.5. […]
(§3) A is the luminescence anisotropy value of CRP when RNA is present,
(§4) A0 is the luminescence anisotropy value of CRP when RNA is not present,
(§5) DA is the difference of luminescence anisotropy value when RNA is not present between various RNA concentrations, […]
(§6) If the newly prepared compound is added to the solution after inducing the bonding of the said RNA and CRP, CRP is separated from RNA by a competitive bonding reaction and the compound to be measured achieves a KD value by bonding with RNA. […]
(§7) [Aminoglycoside]0 is the initial concentration of aminoglycoside to be measured, […]

RRE RNA = assay: Fluorescence anisotropy competition binding (CRP displacement) to RRE RNA; design: species or system HIV; conditions: competition with CRP probe, 20° C., pH 7.5; read-out: binding force (bond constant KD) against RRE RNA
Procedure: as §1, §2, §3, §4, §5, §6, §7

TS RNA = assay: Fluorescence anisotropy competition binding (CRP displacement) to TS RNA; conditions: competition with CRP probe, 20° C., pH 7.5; read-out: binding force (bond constant KD) against TS RNA
Procedure: as §1, §2, §3, §4, §5, §6, §7

Measured: Kd

Neomycin [reference compound]
> 2000 nM: all assays above
